Measurements published in patent US20220040255A1, “CHEMOTHERAPEUTIC REMODELING OF THE GUT MICROBIOME” (THE SCRIPPS RESEARCH INSTITUTE, priority 2018, published 2022).
Where a SMILES comes first, the peptide text is derived from it. [ ]: non-standard residue; d: D form.

Columns and labels:
[1] = system: gut microbiota from cecum of LDLr−/− mice; assay: in vitro en masse screening assay (cecum culture, 16S rRNA sequencing); type: cell-based; details: ranking in remodeling WD gut microbiota toward CHD microbiota composition
Description: We have established the following in vitro compound screening protocol for en masse gut microbiome remodeling. We obtain fresh gut microbiome content from LDLr^-/- mice conditioned for at least two weeks on WD by surgically removing cecum under anaerobic conditions. These samples are then mixed with growth media, distributed in 96-well plates, and incubated overnight in the presence of the test peptides. The activity and selectivity of each peptide for remodeling the gut microbiota community was assessed en masse by 16S rRNA sequencing of each well. A number of challenges had to be addressed in developing this protocol, including inoculum handling, choice of growth media, assay duration, etc. Our current assay culture condition maintains 50 bacterial genera (overnight culture), which is fairly representative of the 67 genera found in the uncultured community (Table 2). We used a distance scoring algorithm for a more refined compound selection, in which peptides that remodel the microbiota community most completely from the dysfunctional state (WD fed) toward the functional state (CHD fed) are scored higher. Briefly, we first eliminate cyclic D,L-α-peptides that have broad-spectrum antibacterial activity (inhibit >95% of growth of ≥25% of species in the community). The remaining compounds are then ranked based on how well they suppressed the bacterial species that grew in abundance in WD-fed mice. […] Among these, 40 genera decreased while 14 genera increased in abundance by WD feeding. Within the increased 11 genera, there were 19 bacterial species that were also present in our in vitro culture system. Accordingly, compounds were scored highly when they reduced the levels of 19 bacterial species (lowest summed differences in relative abundance) that were increased by WD feeding to be more similar to their levels in a CHD-fed microbiome (see Table 3 for peptide ranking). Based on these analyses, we chose two peptides for further in vivo validation and efficacy studies: the cationic peptide 1, […] NO:1), and the neutral peptide 11, […] NO:11), which ranked high within their respective peptide clusters. In vitro cecum culture and peptide screening. We screened a number of parameters to optimize the in vitro culture condition for maximal bacterial diversity in liquid culture, including a survey of several different growth media, dilution factors for plate inoculation, and incubation times; further details of the development of this in vitro screen will be reported elsewhere. Female LDLr^-/- mice (8-10 weeks of age) were fed a WD for two weeks. Cecum harvest and all assay steps were performed under anaerobic conditions (Coy Laboratory anaerobic chamber). Cecum contents from three mice were pooled for the assay to provide enough material and to minimize the individual variation in gut microbiome. Cecum contents were suspended in PBS (1.5 ml PBS per 100 mg of cecum content). The mixture was vortexed for 5 min and the supernatant was transferred to a new tube. The cecum content mixture was further diluted in Chopped Meat Carbohydrate Broth (BD 297307) for in vitro peptide screening. […] The concentration of peptide stock in DMSO was calculated based on A280 measurement. For each peptide, an initial 20 mM stock was made in DMSO and diluted to 1 mM in 10% sucrose. From that, a 0.64 mM peptide dilution in 10% sucrose was prepared, and each peptide was further diluted into the assay for peptide screening at two concentrations (64 μM and 16 μM). Bacterial DNA was harvested after 24-hour peptide treatment and isolated with Microbial DNA isolation kit (Mo Bio) following the manufacturer's instructions. 16S rRNA gene sequencing and processing. PCR amplicons of the V3-V4 16S rRNA region were amplified and sequenced using an Illumina MiSeq platform. […]

[2] = system: gut microbiota transcriptome; assay: bacterial RNA-seq of feces (microbiota transcriptome); type: in vivo, LDLr−/− mice
Description: Bacterial RNA-seq sample preparation and sequencing. Total bacterial RNA from feces samples was isolated with ZR Soil/Fecal RNA MicroPrep (Zymo research) following the manufacturer's instructions. Briefly, the sample was suspended in RNA lysis buffer and lysed by the mixer (Retsch). The supernatant was transferred to a RNA-binding column and washed several times with RNA wash buffer. In-column DNaseI digestion at 25° C. for 15 min was performed to eliminate DNA contamination in the sample. The presence of genomic DNA contamination was assessed by PCR with universal 16S rRNA gene primers. Before RNA-seq library preparation, rRNA was removed from 2 μg of total bacterial RNA with Ribo-Zero Bacteria kit (Illumina). 100 ng of purified RNA was used for RNA-seq library preparation as described previously^56. The cDNA was synthesized by reverse transcription with SuperScript III (Life technologies) and second-strand synthesis (New England Biolabs). The sequencing library was generated from purified cDNA with Nextera XT DNA library preparation kit (Illumina) and amplified by PCR. Cycling conditions were 72° C. for 3 min, 95° C. for 30 s, followed by 16 cycles of 95° C. for 10 s, 55° C. for 30 s, and 72° C. for 30 s. A condition of 72° C. for 5 min was used for the final elongation step. Libraries with different indexes were pooled and single-end sequencing (75 bp) was performed on an Illumina NextSeq at the Scripps Research Institute next generation sequencing core.
Functional analysis of bacterial RNA-seq data. We used BWA (version 0.7.12) read alignment program and a custom-built bacterial reference database, which contains 4,700 bacterial genomes from NCBI NR sequence database, to map RNA-seq reads. The reads aligned to individual bacterial genes were counted using HTSeq count (version 0.6.0) and the counts were further normalized based on size factors estimated using the median of the ratios of observed counts method as described previously (Anders et al., Genome Biol. 11, R106, 2010). The proteins predicted by RNA-seq read alignment were annotated with DIAMOND (version 0.8.26) using the NCBI nonredundant (NCBI-nr) database and the default setting (BLASTX e value <10^−3, bit score >50). For query genes with multiple matches, the annotated reference gene with the lowest e value was chosen. The functional analysis was performed by MEGAN (version 5.11.3) and KEGG analyzer was used to determine read counts in different metabolic pathways from each group. The aggregate expression level changes for sequences within a given function were normalized before the comparison between each group.

SMILES	ranked distance to chow [1]	overall gene expression from Bacteroidetes ([2]; feces, 2-week treatment)	overall gene expression from Firmicutes ([2]; feces, 2-week treatment)	acetoacetate-CoA transferase levels compared to vehicle ([2]; microbiota transcriptome)	butyryl-CoA dehydrogenase levels compared to vehicle ([2]; microbiota transcriptome)
CC(C)C[C@@H]1NC(=O)[C@@H](Cc2c[nH]c3ccccc23)NC(=O)[C@H](CCCNC(=N)N)NC(=O)[C@@H](CCC(=O)O)NC(=O)[C@H](CCC(N)=O)NC(=O)[C@@H](CCC(=O)O)NC(=O)[C@H](CCCNC(=N)N)NC(=O)[C@@H](Cc2c[nH]c3ccccc23)NC1=O [c[wLwReQeR]] (cyclo([dW]L[dW]R[dE]Q[dE]R))	14	increased	reduced	higher	lower
CC(C)C[C@@H]1NC(=O)[C@@H](Cc2c[nH]c3ccccc23)NC(=O)[C@H](CCCCN)NC(=O)[C@@H](Cc2c[nH]cn2)NC(=O)[C@H](CO)NC(=O)[C@@H](Cc2c[nH]cn2)NC(=O)[C@H](CCCCN)NC(=O)[C@@H](Cc2c[nH]c3ccccc23)NC1=O [c[wLwKhShK]] (cyclo([dW]L[dW]K[dH]S[dH]K))	2				
